Measured values published in paper PMC10313921, “A living ex vivo platform for functional, personalized brain cancer diagnosis” (Cell Reports Medicine, 2023).

How the values were obtained:
[1] = tested on: U373KO (RAD18 knockout of U373WT via CRISPR); assay: Drug screening of U373KO tumor foci on OBSCs; assay type: cell-based, human; conditions: U373 KO on OBSCs
In short: (§1)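 Bioluminescence viability readout, 3 d post-treatment, normalized to day-1 tumor fluorescence vs untreated; 6 drug concentrations or XRad, n = 4 foci per concentration. Drug sensitivity score sums weighted parameters comparing tumor kill with OBSC toxicity, ranging −100 to 100.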

[2] = tested on: MS21 (low-passage patient-derived GBM line); assay: Drug screening of MS21 tumor foci on OBSCs; assay type: cell-based, human; conditions: MS21 on OBSCs
In short: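 Drug effects on tumor foci grown on brain slices are quantified by bioluminescence three days after treatment, relative to untreated foci and day-one fluorescence. Efficacy versus slice toxicity is combined into a weighted drug sensitivity score.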

[3] = tested on: GBM8 (high-passage patient-derived GBM line); assay: Drug screening of GBM8 tumor foci on OBSCs; assay type: cell-based, human; conditions: GBM8 on OBSCs
In short: as §1

[4] = tested on: PIS patient tumor tissue (intracranial sarcoma); assay: Drug screening of uncultured patient tumor tissue PIS on OBSCs; assay type: cell-based, human; conditions: Homo sapiens, PIS on OBSCs
In short: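 Uncultured patient tumour tissue, transduced with mCherry-FLuc lentivirus, engrafted on organotypic brain slice cultures (OBSCs); six drug concentrations or X-ray dosing given one day after seeding, n = 4 foci per concentration. Bioluminescence with luciferin read three days post-treatment, normalised to day one and untreated controls; drug sensitivity score combines weighted therapeutic-window parameters versus OBSC toxicity (−100 to 100).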

[5] = tested on: PGBM-R patient tumor tissue (recurrent tumor from same patient as PGBM); assay: Drug screening of uncultured patient tumor tissue PGBM-R on OBSCs; assay type: cell-based, human
Method: (§2) Tumor cells were seeded onto OBSCs 2h after slicing as described above. One day after tumor seeding, six concentrations of each drug were diluted in the media underneath each culture insert, or XRad was applied using an X-Rad 320 Precision X-ray machine (n = 4 tumor foci per concentration; n ≥ 24 tumor foci per drug per cell line). Three days after treatment, the bioluminescence of live tumor cells was measured using an AMI optical imager (Spectral Instruments) and dose-response curves were generated. Tumor survival was normalized to day one tumor fluorescence and compared to an untreated control group.
(§3) To engraft onto OBSCs, the cryopreserved/thawed or fresh brain tumor tissue was filtered through a 100 μm cell strainer. Each 50 mg of tissue was transfected with 1mL mcherry-FLuc Lentivirus at 1.5e7 vg/ml with 1μL polybrene for 4h at 37°C. After incubation, the brain tumor tissue was washed with PBS three times to remove the residual virus and reconstituted in PBS with a final volume of 150 μL. Then the tissue solution was engrafted atop OBSCs at ∼0.5 mg tissue in 3 μL of PBS on each hemisphere of the slice. The OBSC engrafted with patient tumor tissue was incubated at 37°C with 5% CO2 and 95% humidity. The BSM was changed after 24h and subsequently every 3 days. Tumor treatment studies were executed as described above for tumor lines. The viability of the patient tissue was measured by an AMI optical imaging system with the addition of 1.5 mg/mL luciferin underneath the culture insert.
(§4) Several weighted parameters were factored into an overall drug sensitivity score.
(§5) For DSS parameters 1–6, therapeutic windows were calculated by comparing OBSC toxicity and tumor response at the doses where tumor kill passed through the DSS parameter (Table S1 and S3). For DSS parameter 7, the therapeutic window was calculated by comparing the slopes through the tumor EC50 and the OBSC tox EC50. For DSS parameter 8, the therapeutic window was calculated by comparing the areas under tumor kill and OBSC tox curves. Normalized therapeutic window ratios for DSS parameters 1–8 within each drug-tumor-OBSC interaction were calculated in the following manner: within each window, values ranged from +1 to −1, where values approaching +1 signify increasing tumor kill relative to normal tissue toxicity, and values approaching −1 indicate agents where tumors remained highly viable while toxicity to the normal OBSC tissue was elevated. DSS parameters 9–11 were determined based on the behavior of the tumor in response to the drug, as defined above.
(§6) All individually weighed parameters were added together to generate the DSS. Overall DSS from 0 to 100 signify increasing efficacy in tumor kill relative to OBSC toxicity, while scores from 0 to −100 describe scenarios in which tumors thrive more effectively than OBSCs for a given treatment. Dose-response values were calculated via linear interpolation of raw data, not from best-fit curve equations.

[6] = tested on: LN229 (established GBM line); assay: Drug screening of LN229 tumor foci on OBSCs; assay type: cell-based, human
In short: as §1

[7] = tested on: MB231Br (breast cancer metastasis to brain); assay: Drug screening of MB231Br tumor foci on OBSCs; assay type: cell-based, human
[8] = tested on: U373WT (wild-type established GBM line); assay: Drug screening of U373WT tumor foci on OBSCs; assay type: cell-based, human; conditions: U373 WT on OBSCs
In short: as §1

[9] = tested on: PDIPG (low-passage pediatric patient-derived line); assay: Drug screening of PDIPG tumor foci on OBSCs; assay type: cell-based, human; conditions: PDIPG on OBSCs
In short: as §1

[10] = tested on: MG-II patient tumor tissue (WHO grade II meningioma); assay: Drug screening of uncultured patient tumor tissue MG-II on OBSCs; assay type: cell-based; conditions: Homo sapiens
Method: as §2, §3, §4, §5, §6

[11] = tested on: PGBM patient tumor tissue (pediatric GBM); assay: Drug screening of uncultured patient tumor tissue PGBM on OBSCs; assay type: cell-based, human
Method: as §2, §3, §4, §5, §6

[12] = Homo sapiens, U373 MG, dose required to kill 50% of the tumor
[13] = Homo sapiens, U373 MG, dose required to kill 90% of the tumor
[14] = Homo sapiens, U373 MG, dosed day 1, survival via bioluminescence day 4, linear interpolation
[15] = area under the dose-response curve, trapezoidal rule
[16] = dose required to kill 10% of the tumor
[17] = dose required to kill 25% of the tumor
[18] = dose required to kill 75% of the tumor
[19] = Homo sapiens, dose required to kill 90% of the tumor, read-out: EC90
[20] = Homo sapiens, dosed day 1, survival via bioluminescence day 4, linear interpolation, read-out: IC50
[21] = dose required to kill 50% of the tumor
[22] = dose required to kill 90% of the tumor

For `Cn1nnc2c(C(N)=O)ncn2c1=O` [Temozolomide], the EC50 [1, 12] was 1160 µM, the EC90 [1, 13] was > 10 µM and the IC50 [1, 14] was 1160 µM. The “Killing at highest dose” value [1] was 5.40E-01 fraction of tumor population killed, the AUC [1, 15] was 8.89E+02 and the EC10 [1, 16] was 3.85 µM. The EC25 [1, 17] was 9.62 µM, the Slope ([1]; slope through the EC50) was -8.67E-04 and the “Killing at highest dose” value [2] was -8.20E-01 fraction of tumor population killed. For the same molecule, the AUC [2, 15] was 2.37E+03, the EC25 [2, 17] was 417 µM and the EC75 [2, 18] was 1250 µM. The Slope ([2]; slope through the EC50) was 5.47E-04, the “Killing at highest dose” value [3] was 1.00E+00 fraction of tumor population killed and the AUC [3, 15] was 9.52E+01. The EC10 [3, 16] was 1.52 µM, the EC25 [3, 17] was 3.79 µM and the EC75 [3, 18] was 31.2 µM. It also gave a Slope ([3]; slope through the EC50) of -6.60E-02, an EC50 ([3]; Homo sapiens, dose required to kill 50% of the tumor, read-out: EC50) of 7.58 µM and an EC90 [3, 19] of 167 µM. The IC50 [3, 20] was 7.6 µM, the EC50 [4, 21] was > 100 µM and the EC90 [4, 22] was > 10 µM. For the same molecule, the EC90 ([5]; Homo sapiens, PGBM-R on OBSCs, dose required to kill 90% of the tumor) was > 10 µM, the “DSS (drug sensitivity score)” value ([5]; PGBM-R patient tissue, scale -100 to +100) was 17 and the “Killing at highest dose” value [6] was 3.50E-01 fraction of tumor population killed. The EC50 ([6]; Homo sapiens, LN-229, dose required to kill 50% of the tumor) was > 10 µM, the EC90 ([6]; Homo sapiens, LN-229, dose required to kill 90% of the tumor) was > 10 µM and the IC50 ([6]; Homo sapiens, LN-229, dosed day 1, survival via bioluminescence day 4, linear interpolation) was > 10 µM. For the same molecule, the AUC [6, 15] was 1.53E+03, the EC10 [6, 16] was 59.4 µM and the EC25 [6, 17] was 460 µM. The Slope ([6]; slope through the EC50) was -4.00E-05, the EC50 ([7]; Homo sapiens, MB231BR on OBSCs, dose required to kill 50% of the tumor) was > 10 µM and the EC90 ([7]; Homo sapiens, MB231BR on OBSCs, dose required to kill 90% of the tumor) was > 10 µM. For the same molecule, the IC50 ([7]; Homo sapiens, MB231Br on OBSCs, dosed day 1, survival via bioluminescence day 4, linear interpolation) was > 10 µM, the “Killing at highest dose” value ([7]; MB231BR on OBSCs) was -3.30E-01 fraction of tumor population killed and the AUC ([7]; MB231BR on OBSCs, area under the dose-response curve, trapezoidal rule) was 2.58E+03. The EC50 [8, 12] was > 10 µM, the EC90 [8, 13] was > 10 µM and the IC50 [8, 14] was > 10 µM. The “Killing at highest dose” value [8] was 2.20E-01 fraction of tumor population killed, the AUC [8, 15] was 1.52E+03 and the EC10 [8, 16] was 67.3 µM. The EC25 [8, 17] was 96.2 µM, the Slope ([8]; slope through the EC50) was -9.14E-06 and the EC90 [9, 19] was > 10 µM. The IC50 [9, 20] was > 10 µM, the “Killing at highest dose” value [9] was 2.90E-01 fraction of tumor population killed and the AUC [9, 15] was 1.88E+03. The EC10 [9, 16] was 5 µM, the EC25 [9, 17] was 667 µM and the Slope ([9]; slope through the EC50) was -4.80E-05. The EC50 [10, 21] was > 100 µM, the EC90 [10, 22] was > 10 µM and the EC50 ([11]; Homo sapiens, PGBM on OBSCs, dose required to kill 50% of the tumor) was > 100 µM. The EC90 ([11]; Homo sapiens, PGBM on OBSCs, dose required to kill 90% of the tumor) was > 10 µM and the “DSS (drug sensitivity score)” value ([11]; PGBM patient tissue, scale -100 to +100) was 26.
